According to patent publication US20250269044A1, “PSMA-TARGETED DENDRIMER NANOPLATFORM FOR CANCER DETECTION AND THERAPY” (Washington State University, priority 2024, published 2025):
Values after ≈ are worked out from the molar mass of the structure shown. “Also recorded” adds a separate entry of the source.

How the values were obtained:
[1] = Aqueous solubility; format: physicochemical
[2] = test system: PC3-PIP PSMA (+) cells; experiment: CellTiter-Glo Luminescent Cell Viability assay; format: cell-based; conditions: Homo sapiens; for viability at 1 µg/mL: 1 μg/ml; for viability at 1 µg/mL / viability at 10 µg/mL / viability at 1000 µg/mL / EC50: 72 h; for viability at 1 µg/mL / viability at 10 µg/mL / viability at 1000 µg/mL: read-out: viable cells; for viability at 10 µg/mL: 10 μg/ml; for viability at 1000 µg/mL: 1000 μg/ml; for IC50: 72 H, equivalent drug bases, read-out: IC50 anti-proliferative activity; for EC50: nonlinear regression with variable slope
Procedure: Cell viability: 2.5×10^4 PC3-PIP PSMA (+) cells were allowed to adhere to a 96 well plate overnight. The following day, cell media was changed and the PD-CTT1298-Cabo conjugate, at the concentrations tested, was added along with cabozantinib (Cabo) and hydoxy-cabozantinib (Cabo-OH). The cells were allowed to incubate at 37°° C. for 72H. Following incubation, the luminescence of the viable cells was measured using the CellTiter-Glo® Luminescent Cell Viability assay according to manufacturer's instructions. Cell viability (%) was calculated using the luminescence values obtained from the controls used in the experiment. The experiment was performed in triplicate.
Cell viability. 2.5×10^4 PC3-PIP PSMA (+) cells were allowed to adhere to a 96 well plate overnight. The following day, cell media was changed and the PSMA-2DG-D-Cabo dendrimer, at the concentrations tested, were added along with Cabozantinib (Cabo) and Cabozantinib-7-hydoxy derivative (Cabo-OH). The cells were allowed to incubate at 37° C. for 72 h. Following incubation, the luminescence of the viable cells was measured using the CellTiter-Glo® Luminescent Cell Viability assay (Promega, G7570) according to manufacturer's instructions. The luminescence data was collected using a plate reader. Cell viability (%) was calculated using the luminescence values obtained from the controls used in the experiment. The blank cells served as a positive (+) control while sterile 10% DMSO (Fisher Scientific, BP231) served as the negative (−) control. The experiment was performed in triplicate. A similar experiment was carried out with 2DG-D dendrimer at different concentrations (0.1, 1, 10, 100 and 1000 μg/ml) following the same protocol. The experiments were performed in triplicate, with proper controls. Statistical analyses were performed using a TWO-WAY ANOVA T-Test with unequal variances.

[3] = molecular target: c-Met (Homo sapiens, UniProt P08581); experiment: c-Met inhibition activities (IC50); format: biochemical; conditions: read-out: c-Met inhibitory activity IC50
Sequence of c-Met (P08581 25-1390): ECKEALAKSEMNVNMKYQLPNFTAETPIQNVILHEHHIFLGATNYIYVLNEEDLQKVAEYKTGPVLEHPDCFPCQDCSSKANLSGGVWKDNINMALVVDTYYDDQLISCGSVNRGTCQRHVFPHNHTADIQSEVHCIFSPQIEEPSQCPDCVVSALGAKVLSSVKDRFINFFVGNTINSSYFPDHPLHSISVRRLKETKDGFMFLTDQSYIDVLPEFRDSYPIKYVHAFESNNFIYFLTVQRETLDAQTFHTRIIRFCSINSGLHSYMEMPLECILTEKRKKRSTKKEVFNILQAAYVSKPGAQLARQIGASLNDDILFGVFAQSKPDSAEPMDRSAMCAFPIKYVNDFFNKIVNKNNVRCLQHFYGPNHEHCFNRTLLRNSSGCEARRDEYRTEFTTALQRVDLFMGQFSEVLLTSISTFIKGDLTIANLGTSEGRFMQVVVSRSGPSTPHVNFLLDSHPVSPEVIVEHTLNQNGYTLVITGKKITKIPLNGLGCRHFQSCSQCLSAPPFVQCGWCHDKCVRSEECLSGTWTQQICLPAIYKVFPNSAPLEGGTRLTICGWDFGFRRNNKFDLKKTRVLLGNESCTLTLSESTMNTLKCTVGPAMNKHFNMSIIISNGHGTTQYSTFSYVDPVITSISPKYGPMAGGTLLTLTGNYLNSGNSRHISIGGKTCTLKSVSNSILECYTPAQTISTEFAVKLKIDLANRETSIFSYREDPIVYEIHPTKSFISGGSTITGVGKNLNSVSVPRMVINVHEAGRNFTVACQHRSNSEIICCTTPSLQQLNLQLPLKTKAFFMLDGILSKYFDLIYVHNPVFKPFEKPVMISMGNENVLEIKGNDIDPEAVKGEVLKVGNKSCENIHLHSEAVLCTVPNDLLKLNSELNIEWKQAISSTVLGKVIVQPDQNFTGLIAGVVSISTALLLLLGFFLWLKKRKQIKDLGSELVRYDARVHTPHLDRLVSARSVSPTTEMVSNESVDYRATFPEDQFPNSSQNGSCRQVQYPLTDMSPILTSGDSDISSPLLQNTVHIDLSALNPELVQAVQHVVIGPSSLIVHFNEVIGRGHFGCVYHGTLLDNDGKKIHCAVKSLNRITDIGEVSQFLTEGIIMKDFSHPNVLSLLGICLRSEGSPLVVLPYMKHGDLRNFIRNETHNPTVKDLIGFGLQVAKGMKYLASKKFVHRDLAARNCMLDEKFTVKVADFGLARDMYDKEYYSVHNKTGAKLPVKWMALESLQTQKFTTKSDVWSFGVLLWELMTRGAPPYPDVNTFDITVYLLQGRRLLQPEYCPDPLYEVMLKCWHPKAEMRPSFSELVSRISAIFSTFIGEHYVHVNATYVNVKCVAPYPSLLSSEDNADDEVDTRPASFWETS

| Compound | water solubility (in words) [1] | viability at 1 µg/mL [2] [%] | viability at 10 µg/mL [2] [%] | viability at 1000 µg/mL [2] [%] | IC50 [2] [µg/mL] | EC50 [2] [µg/mL] | IC50 [3] [nM] |
| --- | --- | --- | --- | --- | --- | --- | --- |
| COc1cc2nccc(Oc3ccc(NC(=O)C4(C(=O)Nc5ccc(F)cc5)CC4)cc3)c2cc1OC [Cabo, cabozantinib] | poor aqueous solubility; also recorded: negligible solubility in water | 96.3 ± 4.58 | 69.2 ± 0.94 | 4.17 ± 0.53 | 24.8 ± 2.27 | 68 (≈ 136 µM) | – |
| COc1cc2c(Oc3ccc(NC(=O)C4(C(=O)Nc5ccc(F)cc5)CC4)cc3)ccnc2cc1O [Cabo-OH, hydoxy-cabozantinib] | poor aqueous solubility; also recorded: negligible solubility in water | 105 ± 6.38 | 106 ± 3.09 | 7.81 ± 0.24 | 77.3 ± 4.35 | 69.4 (≈ 142 µM) | 26.3 |
